{"source": "patent US20250296909A1", "about": "“NOVEL BENZENE DERIVATIVE AND IMMUNOSUPPRESSION-RELATED USE THEREOF” (PROVIBIO CO., LTD., priority 2021, published 2025)", "key": {"[1]": {"system": "T lymphocyte cell line Jurkat E6-1", "assay": "Cytotoxicity experiment (CCK-8, relative cell survival)", "assay_type": "cell-based", "conditions": "24 hours, untreated cells = 100%", "how_it_was_run": "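Jurkat cells in RPMI-1640 with 10% FBS were exposed to compounds at several concentrations for 24 h at 37 °C, 5% CO2. CCK-8 added for 2 h, absorbance read at 450 nm; survival expressed relative to untreated cells (100%).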"}, "[2]": {"system": "spleen T cells", "assay": "Cytokine secretion by anti-CD3/CD28-activated T cells (Cytometric Bead Array)", "assay_type": "cell-based, C57BL/6 mice", "conditions": "30 μM", "method": "To confirm the effect of compounds of the present invention on the secretion of cytokines by T cells, the following experiment was conducted.\nSpleens were harvested and minced from C57BL/6 mice at 7 weeks of age, and single cells were isolated using a strainer (40 μm pore size, SPL). Red blood cells were removed using ACK (Ammonium-Chloride-Potassium) lysis buffer to isolate only leukocytes. These were then reacted with 10 v/v % CD90.2 microbeads (130-121-278, Miltenyi Biotech.) at 4° C. for 20 minutes, resulting in the isolation of spleen T cells from magnetic-based purification. The T cells were cultured in a 96-well plate at an amount of 2×10^5 cells/well. For T cell activation, each well was treated with anti-CD3/CD28 antibodies at a concentration of 1 μg/mL. Subsequently, Vehicle (DMSO) and compounds (Compound 14, Compound 19, Compound 26, Compound 31, Compound 35, Compound 40, Compound 41, Compound 56, Compound 69, Compound 75) at a concentration of 30 μM were treated in each well, and it was cultured at 37° C. in a 5% CO2 incubator. After 24 and 72 hours, the T cell culture medium was taken, and centrifugation was performed at 13,000 rpm for 10 minutes to obtain the supernatant.\nTo measure the concentration of cytokines present in the T cell culture medium, Mouse Th1/Th2/Th17 Cytokine CBA Kit (Cytometric Bead Array kit) 560485 from BD Science was utilized for flow cytometry analysis. The secretion levels of IL-2 at 24 hours after each drug treatment, and IFN-γ, TNF-α, and IL-17A at 72 hours were measured after each drug treatment."}}}
{"smiles": "CCCCCCCCCCCCNC(=O)c1cccnc1N", "note": "[Compound 69]", "values": [{"measurement": "Relative cell survival rate (%)", "setting": "[1]; 10 μM", "result": 95, "unit": "%"}, {"measurement": "Relative cell survival rate (%)", "setting": "[1]; 20 μM", "result": 94, "unit": "%"}, {"measurement": "Relative cell survival rate (%)", "setting": "[1]; 30 μM", "result": 88, "unit": "%"}, {"measurement": "Relative cell survival rate (%)", "setting": "[1]; 50 μM", "result": 84, "unit": "%"}, {"measurement": "secretion of IL-2", "setting": "[2]; 24 hours after treatment, FIG. 3", "result": "significant decrease"}, {"measurement": "secretion of IFN-γ", "setting": "[2]; 72 hours after treatment", "result": "significant decrease"}, {"measurement": "secretion of IL-17A", "setting": "[2]; 72 hours after treatment", "result": "significant decrease"}, {"measurement": "secretion of TNF-α", "setting": "[2]; 72 hours after treatment", "result": "significant decrease"}]}
